These results are taken from EP1189923B1, “AROMATIC AND HETEROCYCLIC DERIVATIVES OF PHYTOSTEROLS AND/OR PHYTOSTANOLS FOR USE IN TREATING OR PREVENTING CARDIOVASCULAR DISEASE” (Forbes Medi-Tech Inc., priority 1999, dated 2000).

The conditions of assay [1]: in vivo; cited from earlier work.
The test system of assay [2] is apo E-KO mice. As to the kind of experiment: Plasma triglyceride levels in apo E-KO mice fed experimental diets. The format is in vivo. The settings on record: compounds in diet.
Protocol: Thus, as outlined below, 40 male apo E-KO mice were divided into 5 groups of 8 with similar mean plasma cholesterol level and body weight. The animals were fed with the experimental diets for 14 weeks.
The animals were bled from the tail at base line and during the experiment for measurement of plasma lipid levels. At the end of the study, the mice were sacrificed using CO2 gas and taking blood from the heart.
Plasma triglyceride levels were measured in clinical lab At St. Paul's Hospital.

SMILES strings stand for the structures.

For `O=C(O)c1cccnc1` [nicotinic acid], the “elevation of the "good" HDL cholesterol” value in assay [1] was 20-30%. The “effect on plasma triglyceride levels” value in assay [2] is “reduced triglyceride levels”.
